Laboratory results: US4103011A, “Novel penicillin compounds and process for preparation thereof” (priority 1976, dated 1978)
Counter-ions that a name gives are not always drawn. Like-named read-outs stand apart in the source and are kept apart here.

Tests used:
[1] = test system: Serratia mercescens IFO 3736; assay: In vitro antibacterial activity (MIC); assay type: cell-based; details: IFO3736; Serratia mercescens IFO 3736; read-out: minimum inhibitory concentration (MIC)
Excerpt: (§1) In vitro antibacterial activity against 20 strains of bacteria
(§2) The numerals in the table show minimum inhibitory concentrations (MIC)

[2] = test system: Enterobacter cloacae P-2540; assay: In vitro antibacterial activity (MIC); assay type: cell-based
Excerpt: as §1, §2

[3] = test system: Shigella flexneri 4a P-330; assay: In vitro antibacterial activity (MIC); assay type: cell-based; details: 4AP330, read-out: minimum inhibitory concentration (MIC)
Excerpt: as §1, §2

[4] = test system: Streptococcus pyogenes 65A; assay: In vitro antibacterial activity (MIC); assay type: cell-based; details: Streptococcus pyogenes 65A; read-out: minimum inhibitory concentration (MIC)
Excerpt: as §1, §2

[5] = test system: Corynebacterium pyogenes C-21; assay: In vitro antibacterial activity (MIC); assay type: cell-based; details: Rhodococcus (subgen. Prescottella) equi, C21; Corynebacterium pyogenes C-21; read-out: minimum inhibitory concentration (MIC)
Excerpt: as §1, §2

[6] = test system: Pseudomonas aeruginosa Tsuchijima; assay: In vitro antibacterial activity (MIC); assay type: cell-based; details: Pseudomonas aeruginosa Tsuchijima; read-out: minimum inhibitory concentration (MIC)
Excerpt: as §1, §2

[7] = test system: Salmonella enteritidis No. 1891; assay: In vitro antibacterial activity (MIC); assay type: cell-based; details: Salmonella enterica; Salmonella enteritidis No. 1891; read-out: minimum inhibitory concentration (MIC)
Excerpt: as §1, §2

[8] = test system: Escherichia coli P-5101; assay: In vitro antibacterial activity (MIC); assay type: cell-based
Excerpt: as §1, §2

[9] = test system: Staphylococcus aureus No. 50774; assay: In vitro antibacterial activity (MIC); assay type: cell-based; details: Staphylococcus aureus No. 50774; read-out: minimum inhibitory concentration (MIC)
Excerpt: as §1, §2

[10] = test system: Escherichia coli NIHJ JC-2; assay: In vitro antibacterial activity (MIC); assay type: cell-based
Excerpt: as §1, §2

[11] = test system: Escherichia coli P-140a; assay: In vitro antibacterial activity (MIC); assay type: cell-based
Excerpt: as §1, §2

[12] = test system: Proteus rettgeri P-2503; assay: In vitro antibacterial activity (MIC); assay type: cell-based; details: Providencia rettgeri
Excerpt: as §1, §2

[13] = test system: Proteus mirabilis P-2381; assay: In vitro antibacterial activity (MIC); assay type: cell-based
Excerpt: as §1, §2

[14] = test system: Shigella flexneri 2a; assay: In vitro antibacterial activity (MIC); assay type: cell-based; details: read-out: minimum inhibitory concentration (MIC)
Excerpt: as §1, §2

[15] = test system: Staphylococcus aureus 209P JC-1; assay: In vitro antibacterial activity (MIC); assay type: cell-based; details: Staphylococcus aureus 209P JC-1; read-out: minimum inhibitory concentration (MIC)
Excerpt: as §1, §2

[16] = test system: Pseudomonas aeruginosa No.12; assay: In vitro antibacterial activity (MIC); assay type: cell-based; details: Pseudomonas aeruginosa, NO.12, read-out: minimum inhibitory concentration (MIC)
Excerpt: as §1, §2

[17] = test system: Klebsiella pneumoniae No. 13; assay: In vitro antibacterial activity (MIC); assay type: cell-based; details: Klebsiella pneumoniae No. 13; read-out: minimum inhibitory concentration (MIC)
Excerpt: as §1, §2

[18] = test system: Streptococcus faecalis P-2473; assay: In vitro antibacterial activity (MIC); assay type: cell-based; details: Enterococcus faecalis, P2473; Streptococcus faecalis P-2473; read-out: minimum inhibitory concentration (MIC)
Excerpt: as §1, §2

[19] = test system: Proteus morganii Kono; assay: In vitro antibacterial activity (MIC); assay type: cell-based; details: Morganella morganii, read-out: minimum inhibitory concentration (MIC)
Excerpt: as §1, §2

[20] = test system: Salmonella typhimurium S-9; assay: In vitro antibacterial activity (MIC); assay type: cell-based; details: Salmonella enterica; Salmonella typhimurium S-9; read-out: minimum inhibitory concentration (MIC)
Excerpt: as §1, §2

[21] = test system: bacteria (systemic infection); assay: In vivo efficacy against systemic infection, overall conclusions; set-up: species or system male mice (ddY); details: Table II
Procedure: (§3) The contents in the vials (No. A and No. C) prepared in Example 17 were each dissolved in deionized water, and injections having various concentrations were prepared.
(§4) Compounds A, B, F, G, H and M were dissolved in deionized water. Compounds C, D, E and J were dissolved in an aqueous solution of sodium carbonate (pH 8-9) to prepare injections of various concentrations.
(§5) Each of the injections was administered to mice under the conditions described below, and the median effective doses (ED50) obtained are shown in Table II.

[22] = test system: mice
[23] = test system: Escherichia coli P-5101; assay: In vivo efficacy against systemic infection; set-up: species or system male mice (ddY); details: P5101, in Mus musculus, 168 h, twice, about 5 minutes and 6 hours after infection, read-out: ED50 (median effective dose)
Procedure: as §3
(§6) Compounds A, B, F, G, H and M were dissolved in deionized water.
(§7) Mice: male mice (ddY) weighting about 20g
(§8) Intraperitoneal infection with 50 to
(§9) of a bacterial suspension in tryptosoy
(§10) twice, about 5 minutes and 6 hours after
(§11) calculated in accordance with the Behrens-Kaerber method [Arch. Exp. Path

[24] = in vivo; details: mouse
[25] = test system: Staphylococcus aureus No. 50774; assay: In vivo efficacy against systemic infection; set-up: species or system male mice (ddY); details: NO.50774, in Mus musculus, 336 h, sc, twice, about 5 minutes and 6 hours after infection, read-out: ED50 (median effective dose)
Procedure: as §3, §4, §5, §7
Staphylococcus aureus No. 50774;
Intravenous infection with 50 to 100
LD50 (about 5 × 10^8cells/mouse) of a
bacterial suspension in saline.
as §10
Staphylococcus aureus No. 50774 14 days
The numerals in the table show ED50 (mg/kg). ED50 values were
as §11

[26] = test system: Pseudomonas aeruginosa No. 12; assay: In vivo efficacy against systemic infection; set-up: species or system male mice (ddY); details: for ED50: NO.12, in Mus musculus
Procedure: as §3, §6, §7
Pseudomonas aeruginosa No. 12;
as §8, §9, §10
Pseudomonas aeruginosa No. 12
as §11

[27] = P2540, Enterobacter cloacae P-2540, read-out: minimum inhibitory concentration (MIC)
[28] = Escherichia coli, NIHJJC2, read-out: minimum inhibitory concentration (MIC)
[29] = P2503, Proteus rettgeri P-2503, read-out: minimum inhibitory concentration (MIC)
[30] = iv, twice, about 5 minutes and 6 hours after infection, read-out: ED50 (median effective dose)
[31] = sc, twice, about 5 minutes and 6 hours after infection, read-out: ED50 (median effective dose)
[32] = Escherichia coli, P5101, read-out: minimum inhibitory concentration (MIC)
[33] = Proteus mirabilis, P2381, read-out: minimum inhibitory concentration (MIC)

Row | Compound | MIC [1] [µg/mL] | MIC [3] [µg/mL] | MIC [4] [µg/mL] | MIC [5] [µg/mL] | MIC [6] [µg/mL] | MIC [7] [µg/mL] | MIC [9] [µg/mL] | minimum inhibitory concentration (MIC) [11] [µg/mL] | MIC [14] [µg/mL] | MIC [15] [µg/mL] | MIC [16] [µg/mL] | MIC [17] [µg/mL] | MIC [18] [µg/mL] | MIC [20] [µg/mL] | antibacterial activity in vivo (in words) [21] | ED50 ([23]; iv) [mg/kg] | ED50 ([23]; sc) [mg/kg] | LD50 at 168 h ([24]; iv) [mg/kg] | selectivity ratio ([24]; iv) | LD50 at 168 h ([24]; sc) [mg/kg] | other results
1 | CC(=O)N1CCN(c2ncc3c(=O)c(C(=O)N[C@@H](C(=O)N[C@@H]4C(=O)N5[C@@H]4SC(C)(C)[C@@H]5C(=O)O)c4ccc(O)cc4)c[nH]c3n2)CC1 [Compound 2, D-α-[5,8-Dihydro-2-(4-acetyl-1-piperazinyl)-5-oxopyrido[2,3-d]pyrimidine-6-carboxamido]-p-hydroxybenzylpenicillin sodium salt] | 6.25 | 3.13 | 0.006 | 0.78 | 0.78 | 0.78 | 1.56 | 12.5 | 3.13 | 1.56 | 3.13 | 12.5 | 6.25 | 0.78 | excellent antibacterial activity in vivo | 3.9 | 4.6 | 4520 | 753 | > 6000 | MIC [2, 27]: 6.25 µg/mL; MIC ([8]; P5101, Escherichia coli P-5101, read-out: minimum inhibitory concentration (MIC)): 0.78 µg/mL; MIC [10, 28]: 3.13 µg/mL; MIC [12, 29]: 25 µg/mL; MIC ([13]; P2381, Proteus mirabilis P-2381, read-out: minimum inhibitory concentration (MIC)): 6.25 µg/mL; MIC ([19]; Proteus morganii Kono): 6.25 µg/mL; chemotherapeutic index relative to compounds B, D, E, F, G and J (times as high) ([22]; Pseudomonas aeruginosa): 3 to 100 times; LD50 relative to compounds A to G (times as high) ([22]; mice): 2 to 10 times; selectivity ratio ([24]; sc): > 1200; ED50 [25]: 3.3 mg/kg; ED50 [26, 30]: 6 mg/kg; ED50 ([26]; parenteral administration, compounds 1 and 2 together, read-out: ED50): 2 to 6 mg/kg; ED50 [26, 31]: 5 mg/kg; antibacterial activity compared with compounds J and H (in words) ([26]; parenteral administration): far superior antibacterial activity; antibacterial activity relative to compounds B and C (times as high) ([26]; parenteral administration): 3 to 25 times; antibacterial activity relative to compounds D and E (times as high) ([26]; parenteral administration): 6 to 20 times
2 | CNc1ncc2c(=O)c(C(=O)N[C@@H](C(=O)N[C@@H]3C(=O)N4[C@@H]3SC(C)(C)[C@@H]4C(=O)O)c3ccc(O)cc3)c[nH]c2n1 [Compound F, D-α-(5,8-Dihydro-2-methylamino-5-oxopyrido[2,3-d]pyrimidine-6-carboxamido)-p-hydroxybenzylpenicillin sodium salt] | 12.5 | 6.25 | < 0.1 | 0.78 | 0.78 | 1.56 | 0.39 | 25 | 3.13 | 0.39 | 6.25 | 25 | 1.56 | 1.56 | almost comparable | 12 | 6.3 | 1410 | 248 | 1410 | MIC [2, 27]: 12.5 µg/mL; MIC [8, 32]: 3.13 µg/mL; MIC ([10]; NIHJJC2, Escherichia coli NIHJ JC-2, read-out: minimum inhibitory concentration (MIC)): 12.5 µg/mL; MIC [12, 29]: 12.5 µg/mL; MIC [13, 33]: 3.13 µg/mL; MIC ([19]; Proteus morganii Kono): 12.5 µg/mL; selectivity ratio ([24]; sc): 295; ED50 [25]: ~0.7 mg/kg; ED50 [26, 30]: 5.7 mg/kg; ED50 [26, 31]: 4.8 mg/kg
3 | CC1(C)S[C@@H]2[C@H](NC(=O)[C@H](NC(=O)c3c[nH]c4nc(N)ncc4c3=O)c3ccc(O)cc3)C(=O)N2[C@H]1C(=O)O [Compound G, D-α-(5,8-Dihydro-2-amino-5-oxopyrido[2,3-d]pyrimidine-6-carboxamido)-p-hydroxybenzylpenicillin sodium salt] | 12.5 | 6.25 | < 0.1 | 0.78 | 0.39 | 0.78 | 0.39 | 50 | 3.13 | 0.39 | 3.13 | 25 | 1.56 | 1.56 | almost comparable | 8.8 | 11.5 | 1000 | 256 | 1000 | MIC ([2]; Enterobacter cloacae, P2540, read-out: minimum inhibitory concentration (MIC)): 6.25 µg/mL; MIC [8, 32]: 3.13 µg/mL; MIC [10, 28]: 6.25 µg/mL; MIC ([12]; P2503, read-out: minimum inhibitory concentration (MIC)): 6.25 µg/mL; MIC [13, 33]: 3.13 µg/mL; MIC [19]: 6.25 µg/mL; selectivity ratio ([24]; sc): 227; ED50 [25]: ~0.8 mg/kg; ED50 [26, 30]: 3.9 mg/kg; ED50 [26, 31]: 4.4 mg/kg
